Experimental data reported in US20070049564A1 (Wyeth, priority 2005, published 2007).
Values after ≈ are worked out from the molar mass of the structure shown. Like-named read-outs stand apart in the source and are kept apart here.

Legend:
[1] = tested on: E. coli GC 2231; test: MIC, broth microdilution
[2] = tested on: E. coli GC 2235; test: MIC, broth microdilution
[3] = tested on: E. coli GC 2232; test: MIC, broth microdilution
[4] = tested on: E. coli GC 2270; test: MIC, broth microdilution; settings: Escherichia coli
[5] = tested on: E. coli GC 2271; test: MIC, broth microdilution; settings: Escherichia coli, GC2271, E. coli GC 2271
[6] = tested on: E. coli GC 4559; test: MIC, broth microdilution; settings: Escherichia coli, GC4559, E. coli GC 4559
[7] = tested on: E. coli GC 4560; test: MIC, broth microdilution; settings: Escherichia coli, GC4560, E. coli GC 4560
[8] = tested on: E. coli GC 3226; test: MIC, broth microdilution
[9] = tested on: E. coli GC 2203; test: MIC, broth microdilution
[10] = tested on: S. typhimurium GC 2172; test: MIC, broth microdilution; settings: Salmonella enterica, TYPHIMURIUM
[11] = tested on: P. aeruginosa GC 2214; test: MIC, broth microdilution
[12] = tested on: S. aureus GC 6467; test: MIC, broth microdilution
[13] = tested on: S. aureus GC 2216; test: MIC, broth microdilution
[14] = tested on: S. aureus GC 6335; test: MIC, broth microdilution
[15] = tested on: E. faecalis GC 2267; test: MIC, broth microdilution
[16] = tested on: E. faecalis GC 2242; test: MIC, broth microdilution
[17] = tested on: E. faecium GC 4556; test: MIC, broth microdilution; settings: Enterococcus faecium
[18] = tested on: S. pneumoniae* GC 4465; test: MIC, broth microdilution; settings: Streptococcus pneumoniae
[19] = tested on: S. agalactiae GC 4564; test: MIC, broth microdilution
Description: Antimicrobial susceptibility testing. The in vitro activities of the antibiotics are determined by the broth microdilution method as recommended by the National Committee for Clinical Laboratory Standards (NCCLS) (1). Mueller-Hinton II broth (MHBII)(BBL Cockeysville, Md.) is the medium employed in the testing procedures. Microtiter plates containing serial dilutions of each antimicrobial agent are inoculated with each organism to yield the appropriate density (10^5 CFU/ml) in a 100 μl final volume. The plates are incubated for 18-22 hours at 35° C. in ambient air.
Representative compounds were first incubated in mouse serum for an hour prior to the in vitro testing against a panel of selected gram-positive and gram-negative bacteria strains. All compounds were also pre-incubated in water for an hour prior to testing as control. Representative compounds of Formula I were incubated in human serum prior to MIC determination.

[20] = tested on: Staph. aureus Smith; test: In vivo activity (oral, iv; ED50) against Staph. aureus Smith in mice
Description: Representative examples of compounds of Formula I were tested for the oral efficacy using S. aureus Smith in mice.

## CCCN(CC(=O)Nc1cc(N(C)C)c2c(c1O)C(=O)C1=C(O)[C@]3(O)C(=O)C(C(N)=O)=C(O)[C@@H](N(C)C)[C@@H]3C[C@@H]1C2)C(=O)OCC [Example 15, ethyl 2-{[(5aR,6aS,7S,10aS)-9-(aminocarbonyl)-4,7-bis(dimethylamino)-1,8,10a,11-tetrahydroxy-10,12-dioxo-5,5a,6,6a,7,10,10a,12-octahydrotetracen-2-yl]amino}-2-oxoethyl(propyl)carbamate]
[1]; Escherichia coli, GC2231, E. coli GC 2231, Mouse Serum pre-incubation
  MIC: > 64 µg/mL
[1]; Escherichia coli, GC2231, E. coli GC 2231, Water pre-incubation
  MIC: > 64 µg/mL
[2]; Escherichia coli, GC2235, E. coli GC 2235, Mouse Serum pre-incubation
  MIC: 32 µg/mL (≈ 49.7 µM)
[2]; Escherichia coli, GC2235, E. coli GC 2235, Water pre-incubation
  MIC: 32 µg/mL (≈ 49.7 µM)
[3]; Escherichia coli, GC2232, E. coli GC 2232, Mouse Serum pre-incubation
  MIC: > 64 µg/mL
[3]; Escherichia coli, GC2232, E. coli GC 2232, Water pre-incubation
  MIC: > 64 µg/mL
[4]; GC2270, E. coli GC 2270, Mouse Serum pre-incubation
  MIC: 64 µg/mL (≈ 99.4 µM)
[4]; GC2270, E. coli GC 2270, Water pre-incubation
  MIC: 64 µg/mL (≈ 99.4 µM)
[5]; Mouse Serum pre-incubation
  MIC: 64 µg/mL (≈ 99.4 µM)
[5]; Water pre-incubation
  MIC: 64 µg/mL (≈ 99.4 µM)
[6]; Mouse Serum pre-incubation
  MIC: > 64 µg/mL
[6]; Water pre-incubation
  MIC: > 64 µg/mL
[7]; Mouse Serum pre-incubation
  MIC: 1 µg/mL (≈ 1.55 µM)
[7]; Water pre-incubation
  MIC: 1 µg/mL (≈ 1.55 µM)
[8]; Escherichia coli, GC3226, E. coli GC 3226, Mouse Serum pre-incubation
  MIC: > 64 µg/mL
[8]; Escherichia coli, GC3226, E. coli GC 3226, Water pre-incubation
  MIC: > 64 µg/mL
[9]; Escherichia coli, GC2203, E. coli GC 2203, Mouse Serum pre-incubation
  MIC: 32 µg/mL (≈ 49.7 µM)
[9]; Escherichia coli, GC2203, E. coli GC 2203, Water pre-incubation
  MIC: 64 µg/mL (≈ 99.4 µM)
[10]; S. typhimurium GC 2172, Mouse Serum pre-incubation
  MIC: > 64 µg/mL
[10]; S. typhimurium GC 2172, Water pre-incubation
  MIC: > 64 µg/mL
[11]; Pseudomonas aeruginosa, GC2214, P. aeruginosa GC 2214, Mouse Serum pre-incubation
  MIC: > 64 µg/mL
[11]; Pseudomonas aeruginosa, GC2214, P. aeruginosa GC 2214, Water pre-incubation
  MIC: > 64 µg/mL
[12]; Staphylococcus aureus, GC6467, S. aureus GC 6467, Mouse Serum pre-incubation
  MIC: 16 µg/mL (≈ 24.9 µM)
[12]; Staphylococcus aureus, GC6467, S. aureus GC 6467, Water pre-incubation
  MIC: 16 µg/mL (≈ 24.9 µM)
[13]; Staphylococcus aureus, GC2216, S. aureus GC 2216, Mouse Serum pre-incubation
  MIC: 2 µg/mL (≈ 3.11 µM)
[13]; Staphylococcus aureus, GC2216, S. aureus GC 2216, Water pre-incubation
  MIC: 4 µg/mL (≈ 6.21 µM)
[14]; Staphylococcus aureus, GC6335, S. aureus GC 6335, Mouse Serum pre-incubation
  MIC: 4 µg/mL (≈ 6.21 µM)
[14]; Staphylococcus aureus, GC6335, S. aureus GC 6335, Water pre-incubation
  MIC: 4 µg/mL (≈ 6.21 µM)
[15]; Enterococcus faecalis, GC2267, E. faecalis GC 2267, Mouse Serum pre-incubation
  MIC: 8 µg/mL (≈ 12.4 µM)
[15]; Enterococcus faecalis, GC2267, E. faecalis GC 2267, Water pre-incubation
  MIC: 8 µg/mL (≈ 12.4 µM)
[16]; Enterococcus faecalis, GC2242, E. faecalis GC 2242, Mouse Serum pre-incubation
  MIC: 8 µg/mL (≈ 12.4 µM)
[16]; Enterococcus faecalis, GC2242, E. faecalis GC 2242, Water pre-incubation
  MIC: 8 µg/mL (≈ 12.4 µM)
[17]; GC4556, E. faecium GC 4556, Mouse Serum pre-incubation
  MIC: 8 µg/mL (≈ 12.4 µM)
[17]; GC4556, E. faecium GC 4556, Water pre-incubation
  MIC: 8 µg/mL (≈ 12.4 µM)
[18]; S. pneumoniae* GC 4465, Mouse Serum pre-incubation
  MIC: 2 µg/mL (≈ 3.11 µM)
[18]; S. pneumoniae* GC 4465, Water pre-incubation
  MIC: 2 µg/mL (≈ 3.11 µM)
[19]; Streptococcus agalactiae, GC4564, S. agalactiae GC 4564, Mouse Serum pre-incubation
  MIC: 8 µg/mL (≈ 12.4 µM)
[19]; Streptococcus agalactiae, GC4564, S. agalactiae GC 4564, Water pre-incubation
  MIC: 8 µg/mL (≈ 12.4 µM)

## CCCCN(CC(=O)Nc1cc(N(C)C)c2c(c1O)C(=O)C1=C(O)[C@]3(O)C(=O)C(C(N)=O)=C(O)[C@@H](N(C)C)C3CC1C2)C(=O)OCc1oc(=O)oc1C (stereo partly drawn) [Example 109, (5-methyl-2-oxo-1,3-dioxol-4-yl)methyl 2-{[(7S,10aS)-9-(aminocarbonyl)-4,7-bis(dimethylamino)-1,8,10a,11-tetrahydroxy-10,12-dioxo-5,5a,6,6a,7,10,10a,12-octahydrotetracen-2-yl]amino}-2-oxoethyl(butyl)carbamate]
[1]; Escherichia coli, GC2231, pre-incubation in mouse serum
  MIC: 0.5 µg/mL (≈ 0.674 µM)
[1]; Escherichia coli, GC2231, pre-incubation in water
  MIC: 1 µg/mL (≈ 1.35 µM)
[1]; pre-incubation in mouse serum
  MIC: 1 UG/ML
[1]; pre-incubation in water
  MIC: 2 UG/ML
[2]; Escherichia coli, GC2235, pre-incubation in mouse serum
  MIC: 0.25 µg/mL (≈ 0.337 µM)
[2]; Escherichia coli, GC2235, pre-incubation in water
  MIC: 0.5 µg/mL (≈ 0.674 µM)
[2]; pre-incubation in mouse serum
  MIC: 0.50 UG/ML
[2]; pre-incubation in water
  MIC: 1 UG/ML
[3]; Escherichia coli, GC2232, pre-incubation in mouse serum
  MIC: 0.5 µg/mL (≈ 0.674 µM)
[3]; Escherichia coli, GC2232, pre-incubation in water
  MIC: 1 µg/mL (≈ 1.35 µM)
[3]; pre-incubation in water
  MIC: 2 UG/ML
[4]; GC2270, pre-incubation in mouse serum
  MIC: 0.25 µg/mL (≈ 0.337 µM)
[8]; Escherichia coli, GC3226, pre-incubation in mouse serum
  MIC: 0.5 µg/mL (≈ 0.674 µM)
[8]; pre-incubation in mouse serum
  MIC: 1 UG/ML
[9]; Escherichia coli, GC2203, pre-incubation in mouse serum
  MIC: 0.5 µg/mL (≈ 0.674 µM)
[9]; Escherichia coli, GC2203, pre-incubation in water
  MIC: 1 µg/mL (≈ 1.35 µM)
[9]; pre-incubation in water
  MIC: 2 UG/ML
[10]; pre-incubation in mouse serum
  MIC: 4 µg/mL (≈ 5.39 µM)
[10]; pre-incubation in water
  MIC: 16 µg/mL (≈ 21.6 µM)
[11]; Pseudomonas aeruginosa, GC2214, pre-incubation in mouse serum
  MIC: 16 µg/mL (≈ 21.6 µM)
[11]; Pseudomonas aeruginosa, GC2214, pre-incubation in water
  MIC: > 64 µg/mL
[11]; pre-incubation in mouse serum
  MIC: 32 UG/ML
[12]; Staphylococcus aureus, GC6467, pre-incubation in mouse serum
  MIC: 2 µg/mL (≈ 2.7 µM)
[12]; Staphylococcus aureus, GC6467, pre-incubation in water
  MIC: 4 µg/mL (≈ 5.39 µM)
[12]; pre-incubation in water
  MIC: 8 UG/ML
[13]; Staphylococcus aureus, GC2216, pre-incubation in mouse serum
  MIC: 1 µg/mL (≈ 1.35 µM)
[13]; pre-incubation in mouse serum
  MIC: 0.50 UG/ML
[14]; Staphylococcus aureus, GC6335, pre-incubation in mouse serum
  MIC: 2 µg/mL (≈ 2.7 µM)
[14]; Staphylococcus aureus, GC6335, pre-incubation in water
  MIC: 4 µg/mL (≈ 5.39 µM)
[14]; pre-incubation in mouse serum
  MIC: 1 UG/ML
[15]; Enterococcus faecalis, GC2267, pre-incubation in mouse serum
  MIC: 1 µg/mL (≈ 1.35 µM)
[15]; Enterococcus faecalis, GC2267, pre-incubation in water
  MIC: 2 µg/mL (≈ 2.7 µM)
[15]; pre-incubation in water
  MIC: 4 UG/ML
[16]; Enterococcus faecalis, GC2242, pre-incubation in mouse serum
  MIC: 1 µg/mL (≈ 1.35 µM)
[16]; Enterococcus faecalis, GC2242, pre-incubation in water
  MIC: 1 µg/mL (≈ 1.35 µM)
[16]; pre-incubation in water
  MIC: 2 UG/ML
[17]; GC4556, pre-incubation in mouse serum
  MIC: 1 µg/mL (≈ 1.35 µM)
[17]; GC4556, pre-incubation in water
  MIC: 2 µg/mL (≈ 2.7 µM)
[18]; pre-incubation in mouse serum
  MIC: < 0.06 µg/mL
[19]; Streptococcus agalactiae, GC4564, pre-incubation in mouse serum
  MIC: 0.12 µg/mL (≈ 0.162 µM)
[19]; Streptococcus agalactiae, GC4564, pre-incubation in water
  MIC: 0.25 µg/mL (≈ 0.337 µM)
[19]; pre-incubation in mouse serum
  MIC: <0.06 UG/ML
[20]; Staphylococcus aureus, in Mus musculus, po, read-out: ED50 Staph Smith SOD
  ED50: 19.9 mg/kg
[20]; iv, read-out: ED50 Staph Smith SIV
  ED50: 0.76 mg/kg
